Measured values taken from patent US11718628B2, “SREBP inhibitors comprising a 6-membered central ring” (Capulus Therapeutics, LLC, priority 2018, dated 2023).
Like-named read-outs stand apart in the source and are kept apart here.

Columns and labels:
[1] = Plasma and liver compound levels in mice after oral administration; type: in vivo; details: 30 mpk; for concentration at 6 h / concentration at 24 h: mouse, 30 mg/kg
Description: (§1) The pharmacodynamic properties of selected compounds were evaluated in mice. The animals were housed in cages with clean bedding, and maintained and monitored for good health in accordance with Test Facility SOPs and at the discretion of the laboratory animal veterinarian. Certified rodent diet was provided. Food and water was available ad libitum. Environmental controls for the animal room were set to maintain a temperature of 22° C. to 25° C., humidity of 40-70% RH, and a 12-hour light/[…]. Normal healthy animals certified by the attending veterinarian were selected and acclimatized for minimum three days prior to initiation of study. Animals were identified with body markings.
(§2) Aliquots of the compounds being evaluated were weighed and triturated with 0.5% methylcellulose (with the addition of 5% N-methyl pyrrolidone when required to remove clumping, as for Z-806) to an appropriate dose concentration. Vials were labeled with the information about study number, test item, concentration and date of preparation. A description of appearance of formulation was recorded (e.g., color, turbidity, etc.). The composition of formulation vehicle was recorded. An aliquot of each dose solution was taken before the dosing began and after dosing was finished, and stored at approximately −20° C. or below for subsequent analysis. The animals were dosed orally through oral gavage needle, and time of dosing was recorded.
After dosing, the mice were anesthetized using gaseous anesthesia. Blood samples were collected through a capillary, guided in retro-orbital plexus, at 6 h or at 24 h. Approximately 100 uL of blood was collected from each mouse, in pre-labeled tubes. The collected blood was stored on ice prior to centrifugation. Blood samples were then centrifuged within 1 hour of collection to separate plasma. Centrifugation was conducted at 2500×g for 15 minutes at 4° C. The plasma was separated and transferred to pre-labeled micro-centrifuge tubes and promptly frozen at −80±10° C. until bioanalysis.
(§3) Liver Collection at 6 h or 24 h: Immediately after blood withdrawal for pharmacokinetic evaluation (at 6 or at 24 h), liver tissue was collected without perfusion. Animals were euthanized using carbon dioxide gas in a CO2 chamber. The whole blood was drained by cutting the both side jugular vein and abdominal aorta. The liver was separated out. All the liver samples were divided in two parts. The first part (200 mg approx.) was snap frozen using liquid nitrogen as soon as possible. These samples were immediately transferred to −80° C. for storage. The remaining part was weighed and used for bioanalysis.

[2] = Log D by octanol/aqueous buffer partitioning; type: physicochemical; details: pH 7.4, 1-octanol/buffer
Description: The Log D of selected compounds was evaluated by octanol/aqueous buffer partitioning. 500 μL of organic phase (1-octanol) was added to each well of a 2 mL deep well plate, followed by 500 μL of buffer and 15 μL of test compound in DMSO (0.15 mM). The plate was vortexed for 10 seconds and incubated at room temperature for 1 hr on a plate shaker at 200 rpm. After incubation, the samples were allowed to equilibrate for 20 min and then centrifuged at 4000 rpm for 30 min for complete phase separation. The distribution of test compound in buffer and octanol phase was analyzed by HPLC-UV. Log D=Log (Area of Octanol/Area of Buffer).

[3] = tested on: liver gene expression (ACACA, ACLY, FASN, LSS, PNPLA3); assay: Liver gene expression in mice after oral administration; type: in vivo; details: 30 mpk, vs vehicle
Description: as §1, §2, §3
RNA Processing and Gene Expression Analysis: Liver Tissue RNA was harvested with the RNEasy kit and 20-100 ng used to synthesize cDNA with random primers following the manufacturer's protocol. Quantitative PCR was performed on 1 pg to 100 ng cDNA for the following genes: ACACA, ACLY, FASN, LSS, PNPLA3. Gene expression levels were determined using ΔΔCT method comparing treated to vehicle treated samples as a baseline, and fold change calculated. The average value for all 5 genes above was averaged and termed to Total Fold Change The results from this evaluation are presented in Table 8.

[4] = In vivo pharmacokinetic properties in rats (IV and PO); design: species or system male Sprague Dawley rats; details: for AUC(0-t) / clearance / half-life / Vd / bioavailability / Tmax: male, Sprague Dawley, rat, plasma; for clearance: read-out: Intravenous Delivery (IV) CL; for Vd: read-out: Intravenous Delivery (IV) Vd; for bioavailability: read-out: % F (Bioavailability of oral delivery); for Tmax: read-out: Oral Administration (PO) Tmax
Description: The in vivo pharmacokinetic properties of compounds by both intravenous and oral administration were evaluated in male Sprague Dawley rats or C57BL/6J mice.
Animals were housed in cages with clean bedding. Certified rodent diet was provided. Water was available ad libitum. Environmental controls for the animal room were set to maintain a temperature of 22° C. to 25° C., humidity of 40-70% RH, and a 12-hour light/12-hour dark cycle. Normal healthy animals certified by the attending veterinarian were selected and acclimatized for minimum three days prior to initiation of study.
Surgical Procedure for Jugular Vein Cannulation of Rats: Rats were anaesthetized with a single dose of ketamine 50 mg/kg i.p.+xylazine 6 mg/kg i.p. The right jugular vein was exposed, a loose ligature was placed caudally, and the cranial end of vein was ligated. A small incision was made between the ligatures into which the catheter (polyethylene 50 tubing of internal diameter 0.58 mm and outer diameter 0.96 mm) was inserted. The catheter was secured in place by tying the loose ligature around the catheterized vessel. A small incision was made in the scapular region to serve as the exit site of the catheter. The catheter was subcutaneously tunneled and exteriorized through scapular incision. A stay suture was placed in the scapular area. Patency was tested, and catheter was filled with a locking solution (heparinized saline) and sealed with a stainless steel plug. The incision was then sutured with sterile suturing material. Anti-septic solution was applied to the sutured site and animal was placed back in the home cage.
To evaluate pharmacokinetic properties of intravenous delivery, male Sprague Dawley rats were administered 2.00 mg compound/kg animal weight through the tail vein. The concentration of the compound in the plasma of the animals was evaluated at 0.083, 0.25, 0.5, 1, 2, 4, 8, 12 and 24 hr by taking blood samples from the cannulated jugular vein. For the C5Bl/6J mice, blood samples were collected through a capillary, guided in retro-orbital plexus.
To evaluate pharmacokinetic properties of oral delivery, rats (male Sprague Dawley rats) or mice (C5Bl/6J) were administered 10 mg compound/kg animal weight by mouth. The concentration of compound in the plasma of the animals was evaluated at 0.25, 0.5, 1, 2, 4, 6, 8, 12 and 24 hr by taking blood samples from the cannulated jugular vein (rats) or through a capillary, guided in retro-orbital plexus (mice).

[5] = 1-octanol/aqueous buffer, read-out: LogD
[6] = 10 mg/kg, heading: Oral Administration AUC0-last, PO, 10 mg/kg
[7] = IV, 2 mg/kg, read-out: Intravenous Delivery (IV) AUC0-last
[8] = IV, 2 mg/kg, read-out: Intravenous Delivery (IV) T1/2 (converted)
[9] = PO, 10 mg/kg, read-out: Oral Administration (PO) T1/2 (converted)

Row | LogD [2, 5] | AUC(0-t) [4, 6] | AUC(0-t) [4, 7] | clearance ([4]; IV, 2 mg/kg) | half-life [4, 8] | Vd ([4]; IV, 2 mg/kg) | bioavailability ([4]; PO 10 mg/kg vs IV 2 mg/kg) | half-life [4, 9] | Tmax ([4]; PO, 10 mg/kg) | SMILES | Total Gene FC Time (6 h) [3] | Total Gene FC Time (24 h) [3] | other results
1 | – | – | – | – | – | – | – | – | – | Cc1cc(C(=O)N2CCC(O)CC2)ccc1-c1cncc(-c2ccnc(C(C)(C)C)c2)c1 [Compound Z-817] | + (>0.751 = +) | + (>0.751 = +) | Liver ng/mg (6 h) ([1]; 6 h): 100 to 1000 ng/mg; Plasma ng/mL (6 h) ([1]; 6 h): <100 ng/mL; Liver ng/mg 24 h ([1]; 24 h): <100 ng/mg; Plasma ng/mL (24 h) ([1]; 24 h): <100 ng/mL; LogD [2]: 3.36; Intravenous Delivery (IV) CL ([4]; IV, 2 mg/kg): 5.24 mL/min/kg; Intravenous Delivery (IV) T1/2 ([4]; IV, 2 mg/kg): 3.11 h; Intravenous Delivery (IV) Vd ([4]; IV, 2 mg/kg): 1.41 L/kg; % F (Bioavailability of oral delivery) ([4]; PO 10 mg/kg vs IV 2 mg/kg): 13%; Oral Administration (PO) AUC0-last ([4]; PO, 10 mg/kg): 3992; Oral Administration (PO) T1/2 ([4]; PO, 10 mg/kg): 2.56 h; Oral Administration (PO) Tmax ([4]; PO, 10 mg/kg): 19.8 min
2 | 3.84 | 2580 ng·h/mL | 6160 ng·h/mL | 5.2 mL/min/kg | 292 min | 2.18 L/kg | 8.3% | 262 min | 3.33 h | CC(C)(C)c1cc(-c2cncc(-c3ccc(NS(C)(=O)=O)cc3Cl)c2)ccn1 [Compound Z-803, N-(4-(2′-(tert-butyl)-[3,4′-bipyridin]-5-yl)-3-chlorophenyl)methanesulfonamide] | – | – | –
3 | 2.08 | 7140 ng·h/mL | 3800 ng·h/mL | 8.78 mL/min/kg | 185 min | 2.37 L/kg | 38% | 193 min | 0.667 h | CC(C)(O)c1cc(-c2cncc(-c3ccc(C(=O)N4CCC(O)CC4)cc3Cl)c2)ccn1 [Compound Z-796, (3-chloro-4-(2′-(2-hydroxypropan-2-yl)-[3,4′-bipyridin]-5-yl)phenyl)(4-hydroxypiperidin-1-yl)methanone] | + (>0.751 = +) | + (>0.751 = +) | concentration at 6 h ([1]; liver, 6 h, read-out: Liver ng/mg (6 h)): > 1e+06 ng/g; concentration at 24 h ([1]; liver, 24 h, read-out: Liver ng/mg 24 h): < 100000 ng/g; concentration at 6 h ([1]; plasma, 6 h, read-out: Plasma ng/mL (6 h)): 100 to 1000 ng/mL; concentration at 24 h ([1]; plasma, 24 h, read-out: Plasma ng/mL (24 h)): < 100 ng/mL
